# Assay results published in patent publication US20100184820A1, “COMBINATIONS COMPRISING STAUROSPORINES” (priority 2006, published 2010).
# Like-named read-outs stand apart in the source and are kept apart here.
# Assays:
# Type in all cases: cell-based, human
# HMC-1.1 cells [1] = assay: induction of apoptosis (percentage of apoptotic cells on Wright-Giemsa-stained cytospin slides); conditions: for EC50: Homo sapiens, incubated with drugs for 24 hours
# Protocol: (§1) Scramble control represents a mixture of A (adenine), G (guanine), T (thymine), and C (cytosine) bases, the resulting preparation containing an equimolar mixture of oligonucleotides. […] For transfection, 800,000 cells are seeded in 75 cm^2 culture plates at 37° C. for 24 hours. Mcl-1-ASO and Mcl-1 siRNA are complexed with Lipofectin-Reagent (Invitrogen) in RPMI 1640 medium essentially as described. […] After exposure to ASO, cells are washed and cultured in RPMI 1640 medium with 10% FCS in the presence or absence of various concentrations of TK inhibitors for another 12 hours before being analyzed. siRNA-treated cells are kept in control medium for 12 hours (without TK inhibitors) before being examined for the percentage of apoptotic cells and Western blotting.
# (§2) Thereafter, 1 μCi ^3H-thymidine is added to each well. Sixteen hours later, cells are harvested on filter membranes (Packard Bioscience, Meriden, Conn.) in a Filtermate 196 harvester (Packard Bioscience). Filters are then air-dried, and the bound radioactivity is measured in a β-counter (Top-Count NXT, Packard Bioscience). All experiments are performed in triplicates. Cell viability is determined by the trypan blue exclusion test. The percentage of apoptotic cells is determined on Wright-Giemsa-stained cytospin slides employing conventional cytomorphologic criteria.
# (§3) METHOD: Effects of mcl-1 antisense oligonucleotides on Mcl-1 protein expression and cell viability in HMC-1.1 and HMC-1.2 cells are analyzed. […] Western Blot analysis of Mcl-1 expression is performed using an anti-Mcl-1 antibody. β-Actin served as loading control. Evaluation of non-viable (trypan blue-positive) cells is expressed as percentage of all nucleated cells. Numbers (%) of apoptotic cells. Results represent the mean±S.D. from 3 independent experiments.
# (§4) METHOD: [001] Effects of mcl-1-siRNA are analyzed in neoplastic mast cells on expression of Mcl-1 protein and cell viability in HMC-1.1 cells and HMC-1.2 cells. Cells are left untransfected (Control) or are transfected with either an mcl-1-specific siRNA (mcl-1-siRNA; 200 nM) or a luciferase-specific (control)-siRNA (luc-siRNA; 200 nM) as described herein. Mcl-1 protein expression is determined by Western blotting using a polyclonal anti-Mcl -1 antibody. Equal loading is confirmed by probing for β-Actin. Cell viability is analyzed by recording the percentage (%) of apoptotic cells. Results represent the mean±S.D. from 3 independent experiments in each set of experiments.
# (§5) Mcl-1 protein expression is determined by Western blotting using a polyclonal anti-Mcl-1 antibody. Equal loading is confirmed by probing for β-Actin. Cell viability is analyzed by recording the percentage (%) of apoptotic cells.
# HMC-1.2 cells [2] = assay: as above; conditions: for EC50: Homo sapiens, incubated with drugs for 24 hours
# Protocol: as §1, §2, §3, §4, §5
# HMC-1.1 cells [3] = assay: 3H-thymidine incorporation assay; conditions: for IC50: Homo sapiens, read-out: 3H-thymidine uptake (IC50) HMC-1.1; for cell growth / proliferation (in words): HMC-1.1
# Protocol: (§6) The human mast cell line HMC-1 generated from leukemic cells in a patient with MCL48 are obtained (Mayo Clinic, Rochester, Minn.). […] HMC-1 cells are re-thawed from an original stock every 4 to 8 weeks and passaged weekly. As control of ‘phenotypic stability’, HMC-1 cells are periodically checked for expression of KIT and the down-modulating effect of IL-4 (100 U/ml, 48 hours).
# (§7) In a separate set of experiments, HMC-1 cells are transfected with mcl-1-specific ASO before being exposed to inhibitory drugs (see below). […] After exposure to drugs or/and ASO, cells are subjected to ^3H-thymidine uptake experiments, analysis of cell viability and apoptosis, or Western blotting.
# as §2, with “Sixteen hours later, cells are harvested on filter membranes (Packard Bioscience, Meriden, Conn.) in a Filtermate 196 harvester (Packard Bioscience).” left out
# HMC-1.2 cells [4] = assay: 3H-thymidine incorporation assay; conditions: for IC50: Homo sapiens, read-out: 3H-thymidine uptake (IC50) HMC-1.2
# Protocol: as §6, §7
# as §2, with “Sixteen hours later, cells are harvested on filter membranes (Packard Bioscience, Meriden, Conn.) in a Filtermate 196 harvester (Packard Bioscience).” left out
# Mcl-1 protein [5] = assay: Western blot analysis of Mcl-1 protein expression in HMC-1.1 cells; conditions: for expression of the Mcl-1 protein after targeted drugs: HMC-1.1 lacking KIT D816V, PKC412 0.3-10 μM, nilotinib 10-300 nM, imatinib 30-300 nM, 2CdA up to 1,000 ng/ml
# Protocol: (§8) Western blot analysis is performed as described previously using lysates of HMC-1 cells and a polyclonal rabbit anti-human Mcl-1 antibody (Santa Cruz Biotechnology, Santa Cruz, Calif.). In brief, cells are lysed in phosphate buffered saline (PBS) containing 1% Triton-X-100 (Sigma, St. Louis, Mo.). Proteins are separated under reducing conditions by SDS-polyacrylamide gel electrophoresis and transferred to nitrocellulose membranes (Protran, Schleicher & Schuell, Dassel, Germany) in transfer buffer. Membranes are then exposed to anti-mouse/anti-rabbit IgG (BM Chemiluminescence Western blotting Kit, Roche). […] Chemiluminescence is detected by exposure to a Biomax MS film (Kodak).
# as §3, §4, §5
# Mcl-1 protein [6] = assay: Western blot analysis of Mcl-1 protein expression in HMC-1.2 cells; conditions: for expression of the Mcl-1 protein after targeted drugs: HMC-1.2 exhibiting KIT D816V, PKC412 1-10 μM, 2CdA 10-100 ng/ml, nilotinib and imatinib over the dose range tested
# Protocol: as §8, §3, §4, §5
# HMC-1.1 cells [7] = assay: combination of mcl-1 ASO and targeted drugs, combination index (CalcuSyn); conditions: drug combined with mcl-1 ASO
# Protocol: To determine the level of significance in differences found in the evaluation of data, the paired student t-test is applied.
# Results are expressed as percent of control (=scramble control) without targeted drug and represent the mean±SD of 3 independent experiments are analyzed. […] Results represent the mean±SD of 3 independent experiments. […] A combination index (CI) less than 1 indicates synergism.
# [8] = 24 hours of incubation with drug
EC50 (HMC-1.1 cells [1]),EC50 (HMC-1.2 cells [2]),Compound,induction of apoptosis (in words) (HMC-1.1 cells [1]; HMC-1.1),expression of the Mcl-1 protein after targeted drugs (Mcl-1 protein [5]),expression of the Mcl-1 protein after targeted drugs (Mcl-1 protein [6]),cell growth / proliferation (in words) (HMC-1.1 cells [3]),other results
> 1 µg/mL,> 1 µg/mL,"Nc1nc(Cl)nc2c1ncn2[C@H]1C[C@H](O)[C@@H](CO)O1 [2CdA, 2-chlorodeoxyadenosine]",no significant effect,,,,IC50 (HMC-1.1 cells [3]; [8]): 0.1 to 0.3 µg/mL; IC50 (HMC-1.2 cells [4]; [8]): 0.005 to 0.02 µg/mL
,,Cc1ccc(NC(=O)c2ccc(CN3CCN(C)CC3)cc2)cc1Nc1nccc(-c2cccnc2)n1 [Imatinib],induce apoptosis,down-regulate expression,no significant effects,,
,,"CO[C@@H]1[C@H](N(C)C(=O)c2ccccc2)C[C@H]2O[C@]1(C)n1c3ccccc3c3c4c(c5c6ccccc6n2c5c31)C(=O)NC4 [PKC412, N-[(9S,10R,11R,13R)-2,3,10,11,12,13-hexahydro-10-methoxy-9-methyl-1-oxo-9,13-epoxy-1H,9H-diindolo[1,2,3-gh:3′,2′,1′-lm]pyrrolo[3,4-j][1,7]benzodiazonin-11-yl]-N-methylbenzamide]",induce apoptosis,down-regulate expression,decreased the expression,reduce cell growth,"cell growth / proliferation (in words) (HMC-1.2 cells [4]; HMC-1.2, pharmacologically relevant concentrations): counteract cell growth"
30 to 80 nM,> 10000 nM,"Cc1cn(-c2cc(NC(=O)c3ccc(C)c(Nc4nccc(-c5cccnc5)n4)c3)cc(C(F)(F)F)c2)cn1 [nilotinib, 4-methyl-3-[[4-(3-pyridinyl)-2-pyrimidinyl]amino]-N-[5-(4-methyl-1H-imidazol-1-yl)-3-(trifluoromethyl)phenyl]benzamide]",induce apoptosis,down-regulate expression,no significant effects,reduce cell growth,"drug interaction with mcl-1 ASO (synergism, combination index less than 1) (HMC-1.1 cells [7]): only synergistic in HMC-1.1 cells; IC50 (HMC-1.1 cells [3]; 24 hours of incubation with drugs or transfection with ASO): 3 to 10 nM; IC50 (HMC-1.2 cells [4]; 24 hours of incubation with drugs): 1000 to 3000 nM"
,,"mcl-1 siRNA: double-stranded mcl-1 siRNA (AAGAAACGCGGUAAUCGGACU, SEQ ID NO:8, and AGUCCGAUUACCGCGUUUCUU, SEQ ID NO:9) (chain 1 AAGAAACGCGGUAAUCGGACU; chain 2 AGUCCGAUUACCGCGUUUCUU; listed as RNA, chemistry not given here; listed as Homo sapiens)",,,,,"apoptotic cells (HMC-1.1 cells [1]; HMC-1.1, siRNA 200 nM, 12 hours): increase in apoptotic cells; apoptotic cells (HMC-1.2 cells [2]; HMC-1.2, siRNA 200 nM, 12 hours): increase in apoptotic cells; expression of the Mcl-1 protein (Mcl-1 protein [5]; HMC-1.1, siRNA 200 nM): downregulate expression; expression of the Mcl-1 protein (Mcl-1 protein [6]; HMC-1.2, siRNA 200 nM): downregulate expression"
